Experimental data reported in EP0443518A2, “Pharmaceutical containing episialo complex carbohydrate” (MECT CORPORATION, priority 1990, dated 1991).
“Also recorded” adds a separate entry of the source.

Assays:
[1] = test system: normal sera derived from C57BL/6 femal mice; test: ELISA: reactivity of normal mouse serum with gangliosides; format: binding; details: C57BL/6 female mice 9 weeks old, 100 ng ganglioside per well, absorbance at 490 nm, Fig. 1
Protocol: (§1) A serum was obtained by clotting of blood which was collected from a mouse retroorbitally (eyeground method) and removing the clotted blood by centrifugation.
(§2) ELISA assay was conducted by the conventional method.
100 ng of each ganglioside dissolved in ethanol was added to each well of a 96-well microtiter plate and then allowed to stand at 37°C to remove ethanol completely. A blocking solution comprising a phosphate buffer solution (PBS) containing 5% of bovine serum albumin (BSA) or the like was added to the wells and the plate was incubated at 37°C for 2 hours. After the blocking solution was removed, the collected mouse serum was added to each well and the plate was incubated at 37°C for 1 hour. Each well was washed with a phosphate buffer solution containing 1% of BSA. Anti-mouse IgG, IgM and IgA antibodies which were labeled with peroxidase were added to each well and the plate was incubated at 37°C for 1 hour. Each well was washed with a phosphate buffer solution containing 1% of BSA. A substrate solution containing 400 µg/ml of o-phenylenediamine and 0.001% of hydrogen peroxide was added to each well, and the reaction was conducted at room temperature for 15 minutes. 8N sulfuric acid was added to stop the reaction and then the absorbance of the reaction mixture in each well was measured at 490 nm by using a spectrophotometer for a microtiter plate. […]

[2] = test system: sera derived from C57BL/6 female mice (9 weeks old) implanted with B16 melanoma cells; test: ELISA: reactivity of serum of tumor-implanted mice with gangliosides; format: binding, mouse; details: for Reactivity of mouse serum: sera of mice implanted with B16 melanoma cells, 2 weeks after implantation, 100 ng ganglioside per well, absorbance at 490 nm, Fig. 2
Protocol: as §1, §2
(§3) 100 ng of each ganglioside dissolved in ethanol was added to each well of a 96-well microtiter plate and then allowed to stand at 37°C to remove ethanol completely. A blocking solution comprising a phosphate buffer solution (PBS) containing 5% of bovine serum albumin (BSA) or the like was added to the wells and the plate was incubated at 37°C for 2 hours. After the blocking solution was removed, the collected mouse serum was added to each well and the plate was incubated at 37°C for 1 hour. Each well was washed with a phosphate buffer solution containing 1% of BSA. Anti-mouse IgG, IgM and IgA antibodies which were labeled with peroxidase were added to each well and the plate was incubated at 37°C for 1 hour. Each well was washed with a phosphate buffer solution containing 1% of BSA. A substrate solution containing 400 µg/ml of o-phenylenediamine and 0.001% of hydrogen peroxide was added to each well, and the reaction was conducted at room temperature for 15 minutes. 8N sulfuric acid was added to stop the reaction and then the absorbance of the reaction mixture in each well was measured at 490 nm by using a spectrophotometer for a microtiter plate.
In Fig. 2, ●, △, ▲ and □ show the data with respect to a serum derived from a tumor the diameter of which is 5 mm or less, 6 mm, 8 mm and 16 mm, respectively.
Values shown in Fig. 1 and Fig. 2 were obtained by subtracting background values and taking the average of three wells.
Values shown in Fig. 3 were obtained by subtracting background values and taking the average of three wells.

[3] = test system: reactivity of mouse serum with epiGM₃; test: ELISA: inhibition by acetylneuraminic acid of the reactivity of mouse serum with epiGM₃; format: binding; details: sodium N-acetylneuraminate solutions of various concentration added to serum of tumor-implanted mouse; Fig. 4
Protocol: as §3
Sodium N-acetylneuraminate solutions of various concentration were added to the same sera of mice as those used in the above (2). Values shown in Fig. 4 were obtained by subtracting background values and taking the average of three wells. […]

Structure (SMILES)	Reactivity of mouse serum [1]	reaction level / reactivity compared with sera derived from normal mice ([2]; sera of mice implanted with B16 melanoma cells versus normal sera, Fig. 2 versus Fig. 1)	Reactivity of mouse serum [2]	reactivity (rank among GM₃, epiGM₃, GM₄, epiGM₄, GM₅ and epiGM₅) ([2]; serum of the mouse with a 6 mm tumor, diluted 200 times, Fig. 3)	Inhibition of the reactivity of mouse serum with epiGM₃ [3]
CCCCCCCCCCCCCC=CC(O)C(COC1OC(CO)C(OC2OC(CO)C(O)C(OC3(C(=O)O)CC(O)C(NC(C)=O)C(C(O)C(O)CO)O3)C2O)C(O)C1O)NC(=O)CCCCCCCCCCCCCCCCCCCCCCC (stereo not shown) [epiGM₃]	reacted	remarkably increased; also recorded: stronger	reacted	strongest	–
CCCCCCCCCCCCCC=CC(O)C(COC1OC(CO)C(OC2OC(CO)C(O)C(OC3(C(=O)O)CC(O)C(NC(C)=O)C(C(O)C(O)CO)O3)C2O)C(O)C1O)NC(=O)CCCCCCCCCCCCCCCCCCCCCCC (stereo not shown) [GM₃, reference compound]	did not react	–	did not react	–	–
CC(=O)N[C@H]1[C@H]([C@H](O)[C@H](O)CO)OC(O)(C(=O)O)C[C@@H]1O (stereo partly shown) [N-acetylneuraminic acid]	–	–	–	–	inhibited
